From patent US6511997B1, “Aminopyrazole derivatives” (Teikoku Hormone Mfg. Co., Ltd., priority 1998, dated 2003) come the findings set out here.

For `CN(C(=O)Cc1ccccc1)c1c(-c2ccncc2)c(-c2ccc(F)cc2)nn1C` [Example 120, 3-(4-Fluorophenyl)-1-methyl-5-(N-methyl-N-phenylacetylamino)-4-(4-pyridyl)pyrazole], the melting point (commonly the temperature, or range, at which the solid turns liquid) was in the range of 168.5 to 171.2 °C.
The result for `CN(C(=O)Cc1ccccc1Cl)c1c(-c2ccncc2)c(-c2ccc(F)cc2)nn1C` [Example 121, 5-[N-(2-chlorophenylacetyl)-N-methylamino]-3-(4-fluorophenyl)-1-methyl-4-(4-pyridyl)pyrazole] reads 168.6 to 171.2 °C; that for `CN(C(=O)Cc1c(Cl)cccc1Cl)c1c(-c2ccncc2)c(-c2ccc(F)cc2)nn1C` [Example 122, 5-[N-(2,6-dichlorophenylacetyl)-N-methylamino]-3-(4-fluorophenyl)-1-methyl-4-(4-pyridyl)pyrazole], 205.7 to 207.8 °C.
With `CN(C(=O)Cc1ccc(F)cc1)c1c(-c2ccncc2)c(-c2ccc(F)cc2)nn1C` [Example 125, 3-(4-Fluorophenyl)-5-[N-(4-fluorophenylacetyl)-N-methylamino]-1-methyl-4-(4-pyridyl)pyrazole], the melting point was in the range of 124.1 to 125.6 °C.
`COc1ccc(CC(=O)N(C)c2c(-c3ccncc3)c(-c3ccc(F)cc3)nn2C)cc1` [Example 126, 3-(4-Fluorophenyl)-1-methyl-5-[N-methyl-N-(4-methoxyphenylacetyl)amino]-4-(4-pyridyl)pyrazole]: the melting point lay within 175.8 to 178.1 °C.
Then `CCCn1nc(-c2ccc(F)cc2)c(-c2ccncc2)c1N(C)C(=O)Cc1ccccc1` [Example 128, 3-(4-Fluorophenyl)-5-(N-methyl-N-phenylacetylamino)-1-propyl-4-(4-pyridyl)pyrazole], with 124.5 to 127.3 °C; and `CN(C(=O)Cc1ccccn1)c1c(-c2ccncc2)c(-c2ccc(F)cc2)nn1C` [Example 129, 3-(4-Fluorophenyl)-1-methyl-5-[N-methyl-N-(2-pyridylacetyl)amino]-4-(4-pyridyl)pyrazole], with 144 to 145.2 °C; and `CN(C(=O)Cc1ccccc1Cl)c1c(-c2ccncc2)c(-c2ccc(F)cc2)nn1-c1ccccc1` [Example 130, 3-(4-Fluorophenyl)-5-[N-methyl-N-(2-chlorophenylacetyl)amino]-1-phenyl-4-(4-pyridyl)pyrazole], with 203.8 to 205.6 °C.
In the case of `COc1ccccc1CC(=O)N(C)c1c(-c2ccncc2)c(-c2ccc(F)cc2)nn1C` [Example 131, 3-(4-Fluorophenyl)-5-[N-methyl-N-(2-methoxyphenylacetyl)amino]-1-methyl-4-(4-pyridyl)pyrazole], the melting point lay in the range of 143.6 to 145.3 °C.
For the compound `Cn1nc(-c2ccc(F)cc2)c(-c2ccncc2)c1NC(=O)Nc1ccccc1` [Example 136, 3-(4-fluorophenyl)-1-methyl-5-(phenylaminocarbonylamino)-4-(4-pyridyl)pyrazole], the melting point was in the range of 287.5 to 290.2 °C.
Then `O=S(=O)(Nc1n[nH]c(-c2ccc(F)cc2)c1-c1ccncc1)c1ccccc1` [Example 139, 5-(4-fluorophenyl)-3-phenylsulfonylamino-4-(4-pyridyl)pyrazole], with 181 to 183.3 °C.
The result for `Cc1ccc(S(=O)(=O)Nc2n[nH]c(-c3ccc(F)cc3)c2-c2ccncc2)cc1` [Example 140, 5-(4-Fluorophenyl)-4-(4-pyridyl)-3-(p-toluenesulfonylamino)pyrazole] reads 221.2 to 221.5 °C.
